The source of these data is patent publication US6251854A, “N-methyl-d-aspartate receptor channel blockers and method for identifying such” (priority 1999, dated 2001).

Assay [1] concerns the target T1, human NR1-NR2A NMDA receptor subunits (Homo sapiens, UniProt Q05586+Q12879).
T1 construct: expressed in transfected cells; host or cells: Xenopus laevis oocytes
In words: amphibian oocyte current blockade assay (agonist-evoked currents). The following applies: for potency rank as NMDA blocker (FIG. 1): unacetylated peptides; for selectivity for NMDA receptor channels: versus non-NMDA glutamate receptors. The format is cell-based. The protocol: Briefly, in the amphibian oocyte current blockade assay, human NMDA receptors are expressed in the oocytes. The receptors are stimulated in the cells by NMDA agonists. Agonist-induced current is the control against which current blockade levels achieved by incubating the oocytes with candidate NMDA blockers are measured.
(A) NMDA specific receptor channel blocking peptides ("NMDA blockers") were identified by screening synthetic combinatorial libraries (SCL) (see e.g., the library and peptide synthesis methods described in Ostresh, et al., Meth Enzymol (1996) 267:220-34, incorporated herein by reference) and assaying for blockade of agonist-evoked currents by the human NR1-NR2A NMDA receptor subunits expressed in amphibian (Xenopus laevis) oocytes (see, for example, the assay method described in Ferrer-Monteil and Montal, METHODS:A Companion to Methods in Enzymology (1994) 6:60-68, incorporated herein by reference).
(D) The compounds prepared in part (B) above were examined for activity against human brain NMDA receptors (composed of NR1 and NR2A subunits) expressed in oocytes. Ionic currents were activated by 200 μM L-glutamate (L-GIu) 20 μM glycine (Gly), at a holding potential Vh =[…]. Ba^2+ /flufenamic Ringer solution was supplemented with agonist and compounds of the invention, and blockade activity determined for each compound.
An example of how the assay method is performed follows, with reference to FIG. 5.

In assay [2] the test system is cultured hippocampal neurons. In words: hippocampal neuronal cell death model (NMDA excitotoxicity). The following applies: neurons exposed to 200 μM NMDA for 20 minutes (FIG. 3). The format is cell-based, mammalian. The text has this:
In addition to approved clinical trials of the inventive compounds in humans, their efficacy can be confirmed in various known animal models for cerebral impairments associated with NMDA receptor pathology, such as the rat ischemia model (e.g., Seif, et al., Eur J Pharmacol (1990) 185:19-24 and Block and Schwara, Neurosci Lett (1996) 208:41-44). Useful in vitro models for testing neuroprotective drug effects in cerebral neuronal cells are also known and include the chick embryo hypoxia model (e.g., Krieglstein, et al., J Pharmacol Meth (1988) 20:39-46) and the mammalian hippocampal neuronal system in which the inventive compounds were tested (e.g., Schinder, et al., supra). These references are each incorporated by reference to illustrate knowledge in the art concerning models of cerebral dysfunction. Those of ordinary skill in the art will be familiar with, or can readily ascertain, other suitable models for use in testing the compounds of the invention.
Testing of the NMDA blockers of the invention in a hippocampal cell model for neurodysfunction (using the method described in Schinder, et al., J Neurosci (1996) 16:6125-33, incorporated herein by reference) yielded surprising results. Specifically, the NMDA blockers of the invention exert a substantial protective effect against cell death induced by exposure of cultured hippocampal neurons to glutamate agonists in the described model of neuronal cell death due to NMDA receptor dysfunction. In this model, neurons exposed to 200 μM NMDA for 20 minutes display extensive death that can be prevented by open channel blockers such as MK-801 or memantine (FIG. 3). This in vitro paradigm of excitotoxicity provides an assay of neuroprotection (see e.g., Schinder et al., supra and Deshpande, et al., Arch Toxicol, 69:384-390).

The target in assay [3] is T2, AMPA-receptor subunit GluR1 (Homo sapiens, UniProt P42261).
T2 construct: expressed in transfected cells; host or cells: amphibian oocytes
Kind of assay: current blockade at non-NMDA glutamate receptor channels in amphibian oocytes. The format is cell-based. The text has this:
FIG. 1 is a bar graph which depicts the extent of current blockade achieved by various peptides of the invention acting on NMDA receptors ("NMDAR", solid bars) and glutamate receptors of the AMPA-receptor subunit GluR1 type ("GluR1", shaded bars) in amphibian oocytes. Each tested peptide is identified by sequence and test number along the bottom axis of the graph. Current blockade is expressed as a function of the extent of current reduction as compared to current produced in control amphibian oocytes.
(B) To examine the specificity of the blockade activity, the activity of the peptides on glutamate receptor channels of the non-NMDA subtype, specifically, the AMPA-receptor subunit GluR1, was tested.

The mark [4] stands for this setting: Table 2, bicyclic compounds, 200 μM L-glutamate 20 μM glycine, Vh = −80 mV, blocked response 1-(Icmpd/Iagonist), read-out: IC50 (μM) Inhibitory Concentrations.

“Also recorded” adds a separate entry of the source. Counter-ions that a name gives are not always drawn. Like-named read-outs stand apart in the source and are kept apart here. Non-standard residues stand in square brackets, D forms with d. Residues, ends and D or L forms follow the SMILES beside them.

T2 sequence (P42261 19-906): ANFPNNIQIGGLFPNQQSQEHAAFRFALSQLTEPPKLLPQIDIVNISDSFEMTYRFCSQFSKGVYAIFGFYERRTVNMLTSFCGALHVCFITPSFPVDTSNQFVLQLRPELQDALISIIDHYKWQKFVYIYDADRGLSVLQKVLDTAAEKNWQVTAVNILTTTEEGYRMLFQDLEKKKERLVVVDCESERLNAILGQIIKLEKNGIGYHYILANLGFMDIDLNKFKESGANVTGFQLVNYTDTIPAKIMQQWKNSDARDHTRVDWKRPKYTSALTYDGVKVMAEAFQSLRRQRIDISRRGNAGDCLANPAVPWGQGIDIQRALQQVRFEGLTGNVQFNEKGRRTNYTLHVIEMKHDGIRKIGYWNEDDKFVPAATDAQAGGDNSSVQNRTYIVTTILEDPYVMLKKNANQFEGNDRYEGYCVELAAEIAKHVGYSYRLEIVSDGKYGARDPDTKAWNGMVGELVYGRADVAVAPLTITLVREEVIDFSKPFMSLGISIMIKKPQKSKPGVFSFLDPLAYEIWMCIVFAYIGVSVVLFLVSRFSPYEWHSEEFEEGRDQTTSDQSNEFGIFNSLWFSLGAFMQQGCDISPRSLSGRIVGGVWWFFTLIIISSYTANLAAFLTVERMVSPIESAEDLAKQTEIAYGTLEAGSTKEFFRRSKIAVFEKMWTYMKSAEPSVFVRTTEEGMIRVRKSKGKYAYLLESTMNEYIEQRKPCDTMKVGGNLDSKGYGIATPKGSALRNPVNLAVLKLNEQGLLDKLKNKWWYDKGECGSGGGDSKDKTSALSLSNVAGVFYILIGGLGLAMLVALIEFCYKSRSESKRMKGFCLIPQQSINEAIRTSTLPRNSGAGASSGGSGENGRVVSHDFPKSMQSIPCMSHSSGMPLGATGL
T1 sequence (Q12879 23-1464, other chains not shown): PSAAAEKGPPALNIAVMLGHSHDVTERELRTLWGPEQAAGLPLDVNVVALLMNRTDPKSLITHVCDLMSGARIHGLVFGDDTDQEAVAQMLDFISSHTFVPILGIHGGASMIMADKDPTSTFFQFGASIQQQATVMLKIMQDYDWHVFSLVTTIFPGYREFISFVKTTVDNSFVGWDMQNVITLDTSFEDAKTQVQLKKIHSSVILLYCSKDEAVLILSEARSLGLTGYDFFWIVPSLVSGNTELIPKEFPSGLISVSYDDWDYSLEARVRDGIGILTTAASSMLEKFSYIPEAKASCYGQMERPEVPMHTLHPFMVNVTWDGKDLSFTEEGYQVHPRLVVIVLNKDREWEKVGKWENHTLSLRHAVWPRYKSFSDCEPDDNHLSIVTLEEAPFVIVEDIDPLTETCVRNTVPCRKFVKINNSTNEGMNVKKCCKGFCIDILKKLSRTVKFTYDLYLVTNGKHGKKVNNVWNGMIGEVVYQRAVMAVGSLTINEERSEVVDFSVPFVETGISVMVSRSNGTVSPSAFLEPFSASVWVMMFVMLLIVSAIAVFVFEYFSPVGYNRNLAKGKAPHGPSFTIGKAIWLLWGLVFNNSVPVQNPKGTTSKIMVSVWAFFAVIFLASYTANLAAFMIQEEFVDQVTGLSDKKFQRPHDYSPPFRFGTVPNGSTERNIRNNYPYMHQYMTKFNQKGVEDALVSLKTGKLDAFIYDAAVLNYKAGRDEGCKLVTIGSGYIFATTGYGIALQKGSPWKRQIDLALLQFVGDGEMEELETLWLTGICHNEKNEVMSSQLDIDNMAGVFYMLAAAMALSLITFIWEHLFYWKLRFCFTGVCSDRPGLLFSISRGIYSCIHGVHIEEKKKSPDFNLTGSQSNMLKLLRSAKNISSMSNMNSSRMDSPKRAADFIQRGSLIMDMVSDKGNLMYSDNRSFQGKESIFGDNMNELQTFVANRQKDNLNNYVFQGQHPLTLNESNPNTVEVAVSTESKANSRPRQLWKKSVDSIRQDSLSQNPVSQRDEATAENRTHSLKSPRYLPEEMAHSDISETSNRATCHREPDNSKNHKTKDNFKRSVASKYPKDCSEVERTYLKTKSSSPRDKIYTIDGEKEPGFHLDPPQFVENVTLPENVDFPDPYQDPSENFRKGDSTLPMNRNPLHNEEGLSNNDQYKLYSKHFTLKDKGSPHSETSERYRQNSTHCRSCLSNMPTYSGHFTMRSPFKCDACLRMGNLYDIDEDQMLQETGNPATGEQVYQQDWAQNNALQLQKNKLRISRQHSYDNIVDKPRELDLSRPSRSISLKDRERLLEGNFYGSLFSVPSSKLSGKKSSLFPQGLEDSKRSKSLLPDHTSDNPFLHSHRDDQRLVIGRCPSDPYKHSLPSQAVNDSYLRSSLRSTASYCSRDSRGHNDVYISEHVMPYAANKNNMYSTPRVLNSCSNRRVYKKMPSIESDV

In the case of “2H-3-(4-fluorobenzyl)-7-(3-guanidinopropyl)-8-(3-methylbutyl)diazolidine[1,2-b]dihydroimidazole”, in assay [1] (setting [4]), the IC50 stood at 6.1 µM. Regarding RRRCRW, the “potency rank as NMDA blocker (FIG. 1)” value in assay [1] is on record as “most potent”. Regarding `CC12CC3CC(C)(C1)CC(N)(C3)C2` [memantine, 1-amino-3,5-dimethyladmantane hydrochloride, reference compound], the “protection of neurons from excitotoxic cell death” value (“protection of neurons” below) in assay [2] is reported as “prevented”. “2H-3-(3-guanidinopropyl)-7-(but-2-yl)-8-(3-methyl-butyl)diazolidine[1,2-b]dihydroimidazole”: in assay [1] (setting [4]), the IC50 came to 11.8 µM. Take “2H-3-(4-fluorobenzyl)-7-(t-butyl)-8-(3-methyl-butyl)diazolidine[1,2-b]dihydroimidazole”: the IC50 in assay [1] (setting [4]) was found to be 2.2 µM. As for “2H-3-(3-guanidinopropyl)-7-(3-guanidinopropyl)-8-(3-methylbutyl)diazolidine[1,2-b]dihydroimidazole”, in assay [1] (setting [4]), the IC50 came to 4.2 µM.

Regarding `C[C@]12N[C@H](Cc3ccccc31)c1ccccc12` [MK-801, reference compound], the “protection of neurons” value in assay [2] was “prevented”. RRRCWW: the “sensitivity of AMPA receptor channels to the peptides (FIG. 1)” value in assay [3] (set result: weakly sensitive) was “excepting”.

Consider `N=C(N)NCCC[C@H](NC(=O)[C@H](CCCNC(=N)N)NC(=O)[C@H](CCCNC(=N)N)NC(=O)[C@H](CCCNC(=N)N)NC(=O)[C@H](CCCNC(=N)N)NC(=O)[C@@H](N)CCCNC(=N)N)C(N)=O` [RRRRRR], for which, in assay [2], the “protection of neurons” value is given as “protected neurons from excitotoxic cell death”. The compound also came in with an IC50 in assay [1] of 0.5 ± 0.1 µM. For the compound RRCRWW, the “blockade effect on non-NMDA glutamate receptors” value in assay [3] is “no blockade effect”. In addition, the “protection of neurons” value in assay [2] is reported as “prevented neuronal cell death”. For the same compound, the “selectivity for NMDA receptor channels” value in assay [1] is “selective for NMDA receptor channels”. For the compound “2H-3-(4-fluorobenzyl)-7-(but-2-yl)-8-(3-methyl-butyl)diazolidine[1,2-b]dihydroimidazole”, in assay [1] (setting [4]), the IC50 came out at 1.2 µM. For the compound RRRRRW, the “blockade effect on non-NMDA glutamate receptors” value in assay [3] is listed as “no blockade effect”. For the same compound, in assay [2], the “protection of neurons” value is “prevented neuronal cell death; also recorded: protected neurons from excitotoxic cell death”. In addition, in assay [1], the “current blockade at a steady concentration compared with the same concentration of memantine (FIG. 2)” value was “comparable”, the “potency rank as NMDA blocker (FIG. 1)” value is reported as “most potent” and the “selectivity for NMDA receptor channels” value is listed as “selective for NMDA receptor channels”. Besides, the “effect on evoked inward currents upon perfusion (FIG. 5)” value in assay [1] (200 μM L-glutamate/20 μM glycine) is “sharply attenuated”. Moreover, the “increase of blockade efficacy by a C-terminal tryptophan (Ki RRRRRR vs RRRRRW)” value in assay [1] (compared with RRRRRR (#111)) is 1000 fold. Turning to “H-RRRRWW-NH2 (C-terminus assumed) [RRRRWW]”, in assay [3], the “blockade effect on non-NMDA glutamate receptors” value is reported as “no blockade effect”. In addition, the “protection of neurons” value in assay [2] is recorded as “prevented neuronal cell death”. Moreover, in assay [1], the IC50 is 0.1 µM, the “current blockade at a steady concentration compared with the same concentration of memantine (FIG. 2)” value is reported as “comparable”, the “potency rank as NMDA blocker (FIG. 1)” value is given as “most potent” and the “selectivity for NMDA receptor channels” value is “selective for NMDA receptor channels”. The compound `CC(C)C[C@@H](NC(=O)[C@@H](Cc1ccc(O)cc1)NC(=O)[C@H](N)CCCNC(=N)N)C(=O)N[C@H](Cc1ccccc1)C(=O)N[C@H](CCCNC(=N)N)C(=O)N[C@H](CCCNC(=N)N)C(N)=O` [rylfrr] (H-[dR][dY][dL][dF][dR][dR]-NH2) returned an IC50 in assay [1] of 27 ± 4 µM.

On to RRRRW, for which, in assay [2], the “protection of neurons” value was “protected neurons from excitotoxic cell death”.
